Experimental data: patent US6423689B1, “Peptidyl calcium channel blockers” (Warner-Lambert Company, priority 1997, dated 2002)

Key:
[1] = target: T1, N-type Ca2+ channels in IMR-32 cells (Homo sapiens, UniProt Q00975); assay: Inhibition of N-type calcium flux in IMR-32 cells (Indo-1 fluorescence, nitrendipine present); assay type: cell-based; conditions: for inhibition at 1 µM / inhibition at 10 µM: IMR-32; for IC50: IMR-32 cells, 5 μM nitrendipine, K+ depolarization
T1 construct: host or cells: IMR-32 cells, differentiated with dibutyryl cAMP and bromodeoxyuridine
T1 sequence (Q00975 whole entry): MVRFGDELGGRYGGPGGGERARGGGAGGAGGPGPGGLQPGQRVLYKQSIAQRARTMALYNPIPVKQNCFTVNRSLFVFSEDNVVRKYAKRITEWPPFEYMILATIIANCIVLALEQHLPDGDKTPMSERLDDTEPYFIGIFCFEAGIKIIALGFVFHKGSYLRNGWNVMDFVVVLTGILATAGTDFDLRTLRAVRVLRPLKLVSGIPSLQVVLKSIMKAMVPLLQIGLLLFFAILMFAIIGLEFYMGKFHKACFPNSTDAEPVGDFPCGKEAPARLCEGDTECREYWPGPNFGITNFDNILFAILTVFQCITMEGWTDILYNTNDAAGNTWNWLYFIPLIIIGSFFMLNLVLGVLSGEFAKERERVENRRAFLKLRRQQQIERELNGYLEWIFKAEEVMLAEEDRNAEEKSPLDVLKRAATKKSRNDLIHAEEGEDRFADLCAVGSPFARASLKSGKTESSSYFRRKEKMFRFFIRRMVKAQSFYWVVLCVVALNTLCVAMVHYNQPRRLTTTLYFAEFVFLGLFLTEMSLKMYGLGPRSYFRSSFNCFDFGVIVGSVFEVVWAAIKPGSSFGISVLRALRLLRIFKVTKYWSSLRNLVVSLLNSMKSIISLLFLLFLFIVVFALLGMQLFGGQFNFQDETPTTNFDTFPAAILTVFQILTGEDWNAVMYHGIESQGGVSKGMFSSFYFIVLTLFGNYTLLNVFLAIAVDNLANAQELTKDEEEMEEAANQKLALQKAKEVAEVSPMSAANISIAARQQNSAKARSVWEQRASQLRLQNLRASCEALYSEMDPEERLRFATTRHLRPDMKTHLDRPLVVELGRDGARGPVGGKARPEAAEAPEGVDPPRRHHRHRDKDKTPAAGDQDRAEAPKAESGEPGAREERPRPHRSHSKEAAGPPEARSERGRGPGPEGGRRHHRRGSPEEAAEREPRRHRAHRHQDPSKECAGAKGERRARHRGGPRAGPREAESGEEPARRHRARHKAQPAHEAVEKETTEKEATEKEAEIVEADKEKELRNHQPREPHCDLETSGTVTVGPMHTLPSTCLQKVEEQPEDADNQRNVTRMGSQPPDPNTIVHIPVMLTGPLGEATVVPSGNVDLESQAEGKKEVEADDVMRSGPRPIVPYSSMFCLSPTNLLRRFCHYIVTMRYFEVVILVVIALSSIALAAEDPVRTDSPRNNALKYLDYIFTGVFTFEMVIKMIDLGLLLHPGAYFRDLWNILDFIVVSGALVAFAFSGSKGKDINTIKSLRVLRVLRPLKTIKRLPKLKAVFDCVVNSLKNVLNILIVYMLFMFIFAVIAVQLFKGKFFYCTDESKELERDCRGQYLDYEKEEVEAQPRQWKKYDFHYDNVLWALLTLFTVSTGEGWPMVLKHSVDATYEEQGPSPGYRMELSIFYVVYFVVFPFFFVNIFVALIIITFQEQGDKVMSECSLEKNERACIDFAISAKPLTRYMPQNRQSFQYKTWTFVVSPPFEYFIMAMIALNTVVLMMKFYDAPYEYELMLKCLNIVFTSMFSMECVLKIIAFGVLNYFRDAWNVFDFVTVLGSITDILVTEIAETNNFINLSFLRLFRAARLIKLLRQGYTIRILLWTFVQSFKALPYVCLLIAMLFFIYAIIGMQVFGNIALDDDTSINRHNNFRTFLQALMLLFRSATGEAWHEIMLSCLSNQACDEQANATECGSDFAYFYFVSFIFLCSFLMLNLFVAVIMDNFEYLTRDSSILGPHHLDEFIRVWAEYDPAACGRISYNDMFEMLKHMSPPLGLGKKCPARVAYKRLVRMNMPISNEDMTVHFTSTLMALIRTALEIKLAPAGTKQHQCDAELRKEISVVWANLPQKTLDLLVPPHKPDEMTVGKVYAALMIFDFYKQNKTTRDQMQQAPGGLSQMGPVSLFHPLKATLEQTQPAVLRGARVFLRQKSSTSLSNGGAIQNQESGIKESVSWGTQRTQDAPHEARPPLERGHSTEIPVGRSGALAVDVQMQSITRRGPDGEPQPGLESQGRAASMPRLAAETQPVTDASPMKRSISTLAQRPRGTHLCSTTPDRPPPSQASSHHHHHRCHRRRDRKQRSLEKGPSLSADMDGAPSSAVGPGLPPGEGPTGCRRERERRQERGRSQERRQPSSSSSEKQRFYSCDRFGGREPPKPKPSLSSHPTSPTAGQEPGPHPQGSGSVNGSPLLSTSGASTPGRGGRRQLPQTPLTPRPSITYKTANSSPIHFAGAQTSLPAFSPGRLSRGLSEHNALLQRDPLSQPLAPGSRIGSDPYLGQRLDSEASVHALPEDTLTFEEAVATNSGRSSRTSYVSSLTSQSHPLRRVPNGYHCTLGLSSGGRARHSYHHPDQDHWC
T1 sequence (P54289 25-956 partner limits assumed): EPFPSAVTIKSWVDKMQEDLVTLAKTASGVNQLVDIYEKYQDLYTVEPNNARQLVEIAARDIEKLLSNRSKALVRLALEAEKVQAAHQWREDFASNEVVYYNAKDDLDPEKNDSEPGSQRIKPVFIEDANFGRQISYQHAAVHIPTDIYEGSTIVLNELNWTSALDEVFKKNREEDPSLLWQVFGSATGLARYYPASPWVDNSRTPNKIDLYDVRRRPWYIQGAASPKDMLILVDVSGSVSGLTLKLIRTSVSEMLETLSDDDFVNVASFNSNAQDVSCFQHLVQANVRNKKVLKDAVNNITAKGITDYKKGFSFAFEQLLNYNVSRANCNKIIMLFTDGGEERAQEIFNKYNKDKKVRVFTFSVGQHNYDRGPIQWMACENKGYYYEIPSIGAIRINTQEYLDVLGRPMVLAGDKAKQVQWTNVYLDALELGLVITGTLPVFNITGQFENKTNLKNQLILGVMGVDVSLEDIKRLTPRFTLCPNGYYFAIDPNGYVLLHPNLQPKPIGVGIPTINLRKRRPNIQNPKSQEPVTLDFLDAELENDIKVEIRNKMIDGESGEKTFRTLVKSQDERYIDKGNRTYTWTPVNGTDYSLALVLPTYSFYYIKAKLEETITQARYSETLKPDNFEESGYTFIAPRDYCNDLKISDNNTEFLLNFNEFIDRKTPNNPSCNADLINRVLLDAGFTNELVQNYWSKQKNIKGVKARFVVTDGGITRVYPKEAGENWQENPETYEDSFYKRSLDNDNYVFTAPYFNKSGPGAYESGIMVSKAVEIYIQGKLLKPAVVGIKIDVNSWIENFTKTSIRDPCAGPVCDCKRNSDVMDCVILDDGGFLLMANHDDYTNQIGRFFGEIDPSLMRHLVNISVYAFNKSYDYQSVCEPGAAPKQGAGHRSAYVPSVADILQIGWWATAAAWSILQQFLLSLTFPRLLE
T1 sequence (P54289 957-1103 partner limits assumed): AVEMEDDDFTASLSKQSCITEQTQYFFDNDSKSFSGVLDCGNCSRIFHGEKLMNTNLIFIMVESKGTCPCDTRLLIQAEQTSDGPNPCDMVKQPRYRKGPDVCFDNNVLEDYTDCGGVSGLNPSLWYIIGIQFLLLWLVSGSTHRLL
T1 sequence (P54284 whole entry partner): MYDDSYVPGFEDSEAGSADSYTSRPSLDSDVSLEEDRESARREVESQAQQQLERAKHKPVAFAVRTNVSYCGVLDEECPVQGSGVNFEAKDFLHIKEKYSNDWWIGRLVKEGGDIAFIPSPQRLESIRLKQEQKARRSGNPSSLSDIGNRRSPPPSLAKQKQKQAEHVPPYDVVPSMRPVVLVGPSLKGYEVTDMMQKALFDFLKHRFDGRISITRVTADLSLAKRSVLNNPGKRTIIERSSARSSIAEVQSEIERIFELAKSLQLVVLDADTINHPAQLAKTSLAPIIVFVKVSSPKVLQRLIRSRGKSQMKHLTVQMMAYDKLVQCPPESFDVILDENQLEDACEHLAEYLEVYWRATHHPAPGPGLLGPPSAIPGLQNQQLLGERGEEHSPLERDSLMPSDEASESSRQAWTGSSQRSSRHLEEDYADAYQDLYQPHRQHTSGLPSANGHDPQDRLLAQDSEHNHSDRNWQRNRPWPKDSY
Outline: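 Differentiated IMR-32 cells (7–13 days) were loaded with 5 μM Indo-1 AM, preincubated with compound for 10 min at 30° C, and depolarized with KCl/CaCl2 stimulation solution, with 5 μM nitrendipine blocking L-channels. Peak-minus-basal 400/490 nm emission ratio was plotted against drug concentration, and IC50 came from four-parameter logistic fits.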

[2] = target: T2, L-type Ca2+ channels in A10 cells (Rattus norvegicus, UniProt P22002); assay: Inhibition of L-type calcium flux in A10 cells (FLIPR); assay type: cell-based
T2 construct: which endogenously expresses L-type calcium channels; host or cells: A10 rat aortic smooth muscle cells
Protocol: Measurement of L-type Ca^2+ Channel Blocking Potencies of Compounds in A10 cells
Calcium flux through voltage-sensitive calcium channels was assessed by time-resolved monitoring of the fluorescence of pre-loaded calcium-sensitive dyes using FLIPR, a fluorescent image plate reader (Molecular Devices Co.). The A10 smooth muscle cell line derived from embryonic thoracic aorta of the DBIX rat (ATCC, CRL-1476) which endogenously expresses L-type calcium channels. The growth media for A10 cells was Ham's F12/DME high glucose (Irvine Scientific, 9052), supplemented with 20% fetal bovine serum (HyClone Labs, A-1115-L), and 1% each of L-glutamine and antibiotic-antimycotic (same source as above).
Cells were grown to confluency and replated on black-sided 96-well plates (Costar, 3603) for use in FLIPR. Two days after replating, growth media was removed and cells were loaded at 37° C. with 100 μL media containing 1 μM Oregon Green 488 Bapta-1 dye (Molecular Probes, O-6807) for 1 to 3 hours. The dye-containing media was then washed away with buffer (composition in mM: 1.25 CaCl2, 1.2 MgSO4, 11 glucose, 10 HEPES, 3.0 KCl, 137.0 NaCl, pH 7.4 with Tris base) in a Denley Cellwash (Labsystems, CW018B). The residual buffer volume was adjusted to 50 μL. A 5 minute drug-pre-incubation period at 35° C. was initiated when 50 μL of drug-containing buffer was pipetted into the cell plate with the 96-well pipettor integrated in the FLIPR apparatus. Fluorescent counts were monitored at 20 second intervals for 360 seconds, beginning 60 seconds prior to the delivery of drug-containing buffer. Following drug addition, 100 μL aliquots of a high K^+, depolarizing stimulus (composition in mM: 1.25 CaCl2, 1.2 MgSO4, 11 glucose, 10 HEPES, 140.0 KCl, pH 7.4 with Tris base) were added to each well and fluorescence was monitored at 1 second intervals for 120 seconds, beginning 10 seconds prior to the stimulus addition. CCD camera exposure time was 0.4 seconds, laser excitation was at 488 nm with a power of 0.2-0.5W, and a 510 to 560 nm bandpass interference filter preceded the camera.
Data was analyzed as a summation of fluorescent counts above basal during the stimulation period (an approximation of area under the curve), after normalizing the data with a spatial uniformity correction (for variations in laser illumination and cell density) and a negative control correction (zero calcium increase defined as the fluorescence reading in the presence of saturating pharmacologic block of the respective calcium channel). Drug effects were expressed as percent inhibition of fluorescence from an average of 8 K^+-stimulated wells which were pre-treated in the drug incubation period with buffer only.
In the A10 cells, the pharmacologic agent used to define zero calcium influx was nitrendipine (RBI, N-144), at a final concentration of 1.0×10^−6 M.

Compound	inhibition at 1 µM [1]	inhibition at 10 µM [1]	IC50 [2]	melting point	Inhibition of Calcium Flux in IMR-32 Cells % Inhibition at 1 μM ([1]; 1 μM)	Inhibition of Calcium Flux in IMR-32 Cells % Inhibition at 10 μM ([1]; 10 μM)	IC50 [1]
CC(C)C[C@H](NC(=O)N1CCCCCC1)C(=O)N[C@@H](Cc1ccc(C=CC2(O)CCCCC2)cc1)C(=O)NC(C)(C)C [Example 143, [S-(R*,R*)]-Azepane-1-carboxylic acid [1-(1-tert-butylcarbamoyl-2-{4-[2-(1-hydroxy-cyclohexyl)-vinyl]-phenyl}-ethylcarbamoyl)-3-methyl-butyl]-amide]	7%	58%	1300 nM	125 °C (dec.)			
CC(C)C[C@H](NC(=O)N1CCCCCC1)C(=O)N[C@@H](Cc1ccc(CCC(C)(C)C)cc1)C(=O)NC(C)(C)C [Example 145, [S-(R*,R*)]-Azepane-1-carboxylic acid (1-{1-tert-butylcarbamoyl-2-[4-(3,3-dimethyl-butyl)-phenyl]-ethylcarbamoyl}-3-methyl-butyl)-amide]	48%		250 nM	180 to 181 °C			
CC(C)C[C@H](NC(=O)N1CCCCCC1)C(=O)N[C@@H](Cc1ccc(CCc2ccccn2)cc1)C(=O)NC(C)(C)C [Example 147, [S-(R*,R*)]-Azepane-1-carboxylic acid (1-{1-tert-butylcarbamoyl-2-[4-(2-pyridin-2-yl-ethyl)-phenyl]-ethylcarbamoyl}-3-methyl-butyl)-amide]	25%	71%	5100 nM	154 to 156 °C			
CC(C)C[C@H](NC(=O)N1CCCCCC1)C(=O)N[C@@H](Cc1ccc(C#CCN2CCS(=O)(=O)CC2)cc1)C(=O)NC(C)(C)C [Example 140, [S-(R*,R*)]-Azepane-1-carboxylic acid [1-(1-tert-butylcarbamoyl-2-{4-[3-(1,1-dioxo-1l,6-thiomorpholin-4-yl)-prop-1-ynyl]-phenyl}-ethylcarbamoyl)-3-methyl-butyl]-amide]			3000 nM	117 to 118 °C			
CC(C)C[C@H](NC(=O)N1CCCCCC1)C(=O)N[C@@H](Cc1ccc(CCCN2CCS(=O)(=O)CC2)cc1)C(=O)NC(C)(C)C [Example 150, [S-(R*,R*)]-Azepane-1-carboxylic acid [1-(1-tert-butylcarbamoyl-2-{4-[3-(1,1-dioxo-1l,6-thiomorpholin-4-yl)-propyl]-phenyl}-ethylcarbamoyl)-3-methyl-butyl]-amide]			3000 nM	92 to 93 °C			
CC(C)C[C@H](NC(=O)N1CCCCCC1)C(=O)N[C@@H](Cc1ccc(C#Cc2ccccn2)cc1)C(=O)NC(C)(C)C [Example 137, [S-(R*,R*)]-Azepane-1-carboxylic acid {1-[1-tert-butylcarbamoyl-2-(4-pyridin-2-ylethynyl-phenyl)-ethylcarbamoyl]-3-methyl-butyl}-amide]			2600 nM				
CC(C)C[C@H](NC(=O)N1CCCCCC1)C(=O)N[C@@H](Cc1ccc(C#CC2CCCCC2)cc1)C(=O)NC(C)(C)C [Example 136, [S-(R*,R*)]-Azepane-1-carboxylic acid {1-[1-tert-butylcarbamoyl-2-(4-cyclohexylethynyl-phenyl)-ethylcarbamoyl]-3-methyl-butyl}-amide]	45%	64%	1550 nM	171 to 172 °C			
CC(C)C[C@H](NC(=O)N1CCCCCC1)C(=O)N[C@@H](Cc1ccc(CCC2(O)CCCCC2)cc1)C(=O)NC(C)(C)C [Example 148, [S-(R*,R*)]-Azepane-1-carboxylic acid [1-(1-tert-butylcarbamoyl-2-{4-[2-(1-hydroxy-cyclohexyl)-ethyl]-phenyl}-ethylcarbamoyl)-3-methyl-butyl]-amide]	30%	68%	970 nM	101 to 102 °C			
CC(C)C[C@H](NC(=O)N1CCCCCC1)C(=O)N[C@@H](Cc1ccc(C#CC(C)(C)C)cc1)C(=O)NC(C)(C)C [Example 135, [S-(R*,R*)]-Azepane-1-carboxylic acid (1-{1-tert-butylcarbamoyl-2-[4-(3,3-dimethyl-but-1-ynyl)-phenyl]-ethylcarbamoyl}-3-methyl-butyl)-amide]	43%	71%	670 nM	180 to 181 °C			
COc1cc(NC(=O)N[C@@H](CC(C)C)C(=O)N[C@@H](Cc2ccc(OCc3ccccc3)cc2)C(=O)OC(C)(C)C)cc(OC)c1OC (relative stereo) [Example 67, [S-(R*,R*)]-3-(4-Benzyloxy-phenyl)-2-{4-methyl-2-[3-(3,4,5-trimethoxy-phenyl)-ureido]-pentanoylamino}-propionic acid tert-butyl ester]			3000 nM		10%	19%	
CC(C)C[C@H](NC(=O)N1CCCCCC1)C(=O)N[C@@H](Cc1ccc(CCC2CCCCC2)cc1)C(=O)NC(C)(C)C [Example 146, [S-(R*,R*)]-Azepane-1-carboxylic acid (1-{1-tert-butylcarbamoyl-2-[4-(2-cyclohexyl-ethyl)-phenyl]-ethylcarbamoyl}-3-methyl-butyl)-amide]	51%		220 nM	165 °C			
CC(C)C[C@H](NC(=O)N1CCCCCC1)C(=O)N[C@@H](Cc1ccc(Cc2ccccc2)cc1)C(=O)NC(C)(C)C [Example 53, [S-(R*,R*)]-Azepane-1-carboxylic acid {1-[2-(4-benzyl-phenyl)-1-tert-butylcarbamoyl-ethylcarbamoyl]-3-methyl-butyl}-amide]	61%	89%	140 nM	165 to 166 °C			
CC(C)C[C@H](NC(=O)N1CCCCCC1)C(=O)N[C@@H](Cc1ccc(OCc2ccccc2)cc1)C(=O)NCCN1CCOCC1 [Example 186, [S-(R*,R*)]-Azepane-1-carboxylic acid {1-[2-(4-benzyloxy-phenyl)-1-(2-morpholin-4-ylethylcarbamoyl)-ethylcarbamoyl]-3-methyl-butyl}-amide]			3000 nM				1800 nM
CC(C)C[C@H](NC(=O)N1CCCCCC1)C(=O)N[C@@H](Cc1ccc(NCc2ccccc2)cc1)C(=O)NC(C)(C)C [Example 132, [S-(R*,R*)]-Azepane-1-carboxylic acid {1-[2-(4-benzylamino-phenyl)-1-tert-butylcarbamoyl-ethylcarbamoyl]-3-methyl-butyl}-amide]	37%	83%	910 nM	89 to 90 °C			900 nM
CC(C)C[C@H](NC(=O)N1CCCCCC1)C(=O)N[C@@H](Cc1ccc(/C=C\C2CCCCC2)cc1)C(=O)NC(C)(C)C [Example 142, [S-(R*,R*),Z]-Azepane-1-carboxylic acid (1-{1-tert-butylcarbamoyl-2-[4-(2-cyclohexyl-vinyl)-phenyl]-ethylcarbamoyl}-3-methyl-butyl)-amide]			680 nM	168 to 169 °C			
CC(C)C[C@H](NC(=O)N1CCCCCC1)C(=O)N[C@@H](Cc1ccc(CCc2ccccc2)cc1)C(=O)NC(C)(C)C [Example 144, [S-(R*,R*)]-Azepane-1-carboxylic acid {1-[1-tert-butylcarbamoyl-2-(4-phenethyl-phenyl)-ethylcarbamoyl]-3-methyl-butyl}-amide]	61%	86%	550 nM	155 to 156 °C			
